What all share (assay): MTT cytotoxicity assay (Example 1)
One experiment has as its system HEY. The format is cell-based, human. Conditions: 72 h. An excerpt:
(§1) Human breast cancer cells MDA-MB-435 were purchased from the American Type Culture Collection (Manassas, Va.). The HCT116 p53+/+ and HCT116 p53−/− cells were kindly provided by Dr. Bert Vogelstein (Johns Hopkins Medical Institutions, Baltimore, Md.). The human ovarian carcinoma cell line (HEY) which is naturally resistant to cisplatin, was kindly provided by Dr. Louis Dubeau, University of Southern California (USC) Norris Cancer Center, and NIH3T3 normal mouse fibroblast cells were kindly provided by Dr. Michael Press from USC. HEY and NIH3T3 cells were maintained as monolayer cultures in RPMI, HCT 116 cells in McCoy1s5A media and MDA-MB 435 in DMEM. Media were purchased from (Mediatech, Virginia) and supplemented with 10% fetal bovine serum (Gemini-Bioproducts, Woodland, Calif.), 2 mM L-glutamine and 5% Penicillin/streptomycin from Bio whittaker were purchased from VWR. Cells were incubated at 37° C. in a humidified atmosphere of 5% CO2. To remove the adherent cells from the flask for passaging and counting, cells were washed with PBS without calcium or magnesium, incubated with a small volume of 0.25% trypsin-EDTA solution (Sigma-Aldrich, St. Louis, Mo.) for 5-10 min, and washed with culture medium and centrifuged. All experiments were performed using cells at exponential growth stage. Cells were routinely checked for mycoplasma contamination using a PCR-based assay (Stratagene, Tex., USA).
(§2) Stock solutions (10 mM) of all compounds were prepared in DMSO and stored at −20° C. Further dilutions were made fresh in PBS or cell-culture media right before cell treatment.
(§3) Cytotoxicity was assessed by a 3-(4,s-dimethylthiazol-2-yl)-2,5-diphenyltetrazolium bromide (MTT) assay as previously described.^24 Briefly, cells were seeded in 96-well microtiter plates and allowed to attach overnight. Cells were subsequently treated with continuous exposure to the corresponding drug for 72 h. A MTT solution (at a final concentration of 0.5 mglml) was added to each well, and cells were incubated for 4 h at 37° C. After removal of the medium, DMSO was added and the absorbance was read at 570 nm. All assays were done in triplicate. The IC50 was then determined for each drug from a plot of log (drug concentration) versus percentage of cells killed.

The subject of a further experiment is MDA-MB-435. The format is cell-based, human.
Excerpt: as §1, §2, §3

For the next experiment, the system named is HCT116 p53−/−. Format: cell-based. As to conditions: MTT, 72 h.
Excerpt: as §1, §2, §3

A further experiment concerns HCT116 p53+/+. The format is cell-based. Conditions: MTT, 72 h.
Excerpt: as §1, §2, §3

Another experiment relates to NIH3T3. Format: cell-based, mouse.
Excerpt: as §1, §2, §3

The record followed here is US8445677B2, “Substituted pyrimidyl guanidine derivatives having anticancer activity” (University of Southern California, priority 2008, dated 2013).

Regarding `COc1ccccc1Nc1nc2nonc2nc1N/N=C/c1ccccc1F` [Compound 10], the IC50 – broadly, the concentration needed to halve the response being measured – in the experiment with HEY (Homo sapiens) was over 10 µM; with MDA-MB-435 (Homo sapiens, MDA-MB-435, 72 h), over 10 µM; in the experiment with HCT116 p53−/− (Homo sapiens, HCT-116, 72 h), over 10 µM; with HCT116 p53+/+ (Homo sapiens, HCT-116, 72 h) it was over 10 µM; in the experiment on NIH3T3 (Mus musculus, NIH3T3, 72 h), over 10 µM.
As for `Cc1ccccc1Nc1nc2nonc2nc1N/N=C/c1cc(Br)ccc1O` [Compound 8], the IC50 in the experiment on HEY (Homo sapiens) is 5 µM; in the experiment with MDA-MB-435 (Homo sapiens, MDA-MB-435, 72 h) it was over 10 µM; in the experiment on HCT116 p53−/− (Homo sapiens, HCT-116, 72 h) it was 1.1 ± 0.4 µM; in the experiment with HCT116 p53+/+ (Homo sapiens, HCT-116, 72 h), 2 µM; in the experiment with NIH3T3 (Mus musculus, NIH3T3, 72 h), over 10 µM.
As to `C=CCn1c(=O)c(C(=O)Nc2nc(CC(=O)OCC)cs2)c(O)c2ccccc21` [Compound 31], the IC50 with HEY (Homo sapiens) was over 10 µM; with MDA-MB-435 (Homo sapiens, MDA-MB-435, 72 h) it was over 10 µM; in the experiment on HCT116 p53−/− (Homo sapiens, HCT-116, 72 h), over 10 µM; in the experiment on HCT116 p53+/+ (Homo sapiens, HCT-116, 72 h) it was 20 µM; in the experiment on NIH3T3 (Mus musculus, NIH3T3, 72 h), over 10 µM.
With `O=C(Nn1c(Cc2ccccc2)nc2ccccc2c1=O)c1c(O)c2cccc3c2n(c1=O)CCC3` [Compound 28], the IC50 is 15 µM in the experiment on HEY; 19 µM in the experiment on HEY (Homo sapiens); over 10 µM in the experiment with MDA-MB-435 (Homo sapiens, MDA-MB-435, 72 h); over 10 µM in the experiment with HCT116 p53−/− (Homo sapiens, HCT-116, 72 h); over 20 µM with HCT116 p53+/+ (Homo sapiens, HCT-116, 72 h); over 10 µM with NIH3T3 (Mus musculus, NIH3T3, 72 h).
As for `O=C(O)c1cc(-c2ccc(C=NNc3nc4nonc4nc3Nc3ccc(F)cc3)o2)ccc1Cl` [Compound 13], the IC50 was over 10 µM in the experiment with HEY (Homo sapiens); over 10 µM in the experiment on MDA-MB-435 (Homo sapiens, MDA-MB-435, 72 h); 7 µM in the experiment on HCT116 p53−/− (Homo sapiens, HCT-116, 72 h); over 10 µM in the experiment on HCT116 p53+/+ (Homo sapiens, HCT-116, 72 h); 10 µM with NIH3T3 (Mus musculus, NIH3T3, 72 h).
On to `CCOc1ccc2nc(NC(=N)/N=C(\C)c3ccccc3C(=O)O)nc(C)c2c1` [Compound 34], for which the IC50 with HEY (Homo sapiens) was 7 µM; with MDA-MB-435 (Homo sapiens, MDA-MB-435, 72 h), over 20 µM; with HCT116 p53−/− (Homo sapiens, HCT-116, 72 h), 10 µM; with HCT116 p53+/+ (Homo sapiens, HCT-116, 72 h), 20 µM; in the experiment on NIH3T3 (Mus musculus, NIH3T3, 72 h) it was over 10 µM.
`C/C(=N\C(=N)Nc1nc(C)c2cc(C)ccc2n1)c1ccccc1C(=O)O` [Compound 33]: the IC50 in the experiment with HEY was determined as 3 µM; in the experiment with HEY (Homo sapiens), 5 µM; in the experiment on MDA-MB-435 (72 h), 18 µM; in the experiment on MDA-MB-435 (Homo sapiens, MDA-MB-435, 72 h), 17 µM; in the experiment on HCT116 p53−/− (Homo sapiens, HCT-116, 72 h) it was 5 µM; in the experiment with HCT116 p53+/+ (Homo sapiens, HCT-116, 72 h) it was 18 µM. The same compound returned an IC50 with NIH3T3 (Mus musculus, NIH3T3, 72 h) of 14 µM.
With `C1C2CC3CC1CC(C2)C3Nc1nc2nonc2nc1NC1C2CC3CC(C2)CC1C3` (stereo not drawn) [Compound 24], the IC50 with HEY (Homo sapiens) was found to be 8 ± 1.7 µM; with MDA-MB-435 (Homo sapiens, MDA-MB-435, 72 h), 9 µM; in the experiment on HCT116 p53−/− (Homo sapiens, HCT-116, 72 h), 9 ± 1 µM; in the experiment with HCT116 p53+/+ (Homo sapiens, HCT-116, 72 h), 6 µM; with HCT116 p53+/+, 8 µM; in the experiment on NIH3T3 (Mus musculus, NIH3T3, 72 h), 9 µM.
Regarding `O=C(O)c1cc(-c2ccc(/C=N/Nc3nc4nonc4nc3Nc3ccccc3F)o2)ccc1Cl` [Compound 17], the IC50 with HEY was 15 µM; with MDA-MB-435 (72 h), over 20 µM; in the experiment with HCT116 p53−/−, over 10 µM; with HCT116 p53+/+, 7 ± 1 µM; in the experiment with NIH3T3 (72 h) it was over 10 µM.
With `CCOC(=O)c1ccc(Nc2nc3nonc3nc2N/N=C/c2cccc3ccccc23)cc1` [Compound 11], the IC50 was 4 µM in the experiment on HEY (Homo sapiens); over 10 µM with MDA-MB-435 (Homo sapiens, MDA-MB-435, 72 h); 2 µM with HCT116 p53−/− (Homo sapiens, HCT-116, 72 h); over 10 µM in the experiment on HCT116 p53+/+ (Homo sapiens, HCT-116, 72 h); 2 µM in the experiment on NIH3T3 (Mus musculus, NIH3T3, 72 h).
As for `COc1ccc(/C=N/Nc2nc3nonc3nc2Nc2ccccc2OC)cc1Br` [Compound 9], the IC50 in the experiment with HEY (Homo sapiens) is over 10 µM; in the experiment with MDA-MB-435 (Homo sapiens, MDA-MB-435, 72 h) it was over 20 µM; in the experiment with HCT116 p53−/− (Homo sapiens, HCT-116, 72 h) it was over 10 µM; with HCT116 p53+/+ (Homo sapiens, HCT-116, 72 h), over 20 µM; in the experiment on NIH3T3 (Mus musculus, NIH3T3, 72 h) it was over 10 µM.
Take `COc1ccc(/C=N/Nc2nc3nonc3nc2Nc2ccc(F)cc2)cc1Br` [Compound 4]: the IC50 with HEY (Homo sapiens) amounted to 10 µM; in the experiment with MDA-MB-435 (Homo sapiens, MDA-MB-435, 72 h), 10 µM; in the experiment on HCT116 p53−/− (Homo sapiens, HCT-116, 72 h) it was 3 µM; in the experiment with HCT116 p53−/−, 2 µM; in the experiment on HCT116 p53+/+ (Homo sapiens, HCT-116, 72 h), 4 µM; with NIH3T3 (Mus musculus, NIH3T3, 72 h), 6 µM.
Turning to `COc1cc(/C=N/Nc2nc3nonc3nc2Nc2ccccc2F)ccc1O` [Compound 3], the IC50 with HEY (Homo sapiens) was 5 µM; in the experiment with MDA-MB-435 (Homo sapiens, MDA-MB-435, 72 h), over 10 µM; in the experiment on HCT116 p53−/− (Homo sapiens, HCT-116, 72 h) it was over 10 µM; with HCT116 p53+/+ (Homo sapiens, HCT-116, 72 h), over 10 µM; with NIH3T3 (Mus musculus, NIH3T3, 72 h), over 10 µM.
For the compound `CCCc1nc2ccccc2c(=O)n1NC(=O)c1c(O)c2cccc3c2n(c1=O)CCC3` [Compound 27], the IC50 was over 20 µM with HEY (Homo sapiens); over 20 µM in the experiment on MDA-MB-435 (Homo sapiens, MDA-MB-435, 72 h); over 10 µM in the experiment with HCT116 p53−/− (Homo sapiens, HCT-116, 72 h); over 20 µM with HCT116 p53+/+ (Homo sapiens, HCT-116, 72 h); 12 µM in the experiment with NIH3T3 (Mus musculus, NIH3T3, 72 h).
